Experimental data taken from patent US20250074910A1, “MENIN INHIBITOR AND USE THEREOF” (HITGEN INC., priority 2021, published 2025).
Read-outs that look alike come from different tables or passages of the source.

How the values were obtained:
MV4-11 = assay: Cell proliferation inhibition (CellTiter-Glo), MV4-11; assay type: cell-based; details: Homo sapiens, MV4-11, 72 h, MV4-11 cells
Outline: (§1)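 CellTiter-Glo luminescence read-out (10 min RT) after 72-168 h culture at 37° C, 5% CO2; cells plated 5,000-20,000/well; compound final 1 nM-10 μM; IC50 from curve fit.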

MOLM-13 = assay: Cell proliferation inhibition (CellTiter-Glo), MOLM-13; assay type: cell-based; details: Homo sapiens, MOLM-13, 168 h, MOLM-13 cells
Outline: as §1

OCI-AML3 = assay: Cell proliferation inhibition (CellTiter-Glo), OCI-AML3 (NPM1 mutation); assay type: cell-based; details: Homo sapiens, OCI-AML-3, 168 h, OCI-AML3 cells
Outline: as §1

[1] = Stability in mouse liver microsomes; assay type: in vitro ADME; details: 1.00 μM compound, NADPH; for half-life at 1 μM: liver microsomes, pH 7.4, 0.5 mg/mL microsomal protein, read-out: Half life T1/2, mouse liver microsomes
Method: (§2) Test Example 3: Test of Stability of Compounds in Liver Microsome
(§3) Test purpose: To determine the stability of some of the compounds of the present disclosure in mouse, dog and human liver microsomes by LC-MS/MS method.
(§4) Test materials: The test drugs were in-house prepared example compounds of the present disclosure; the positive reference compound SNDX-5613 was prepared by the method of Example 253 in patent WO2017214367; the control compound 1 was prepared by the method of Example 64 in WO2017214367; liver microsomes were purchased from CORNING.
(§5) The total volume of each incubation system was approximately 45 μL, and the medium was 100 mM phosphate buffer (PBS, pH 7.4), including liver microsomal protein at a final concentration of 0.5 mg/mL, 1.00 μM compound and 2.00 mM NADPH, and the organic phase content was <1%. Incubation was performed in a 37° C. incubator, and 135 μL of ice-cold acetonitrile was added after 0, 5, 15, 30 and 60 min of reaction to terminate the reaction. The positive control group was incubated with 1.00 μM Ketanserin, 0.5 mg/mL liver microsomal protein and 2.00 mM NADPH in a 37° C. incubator for 0, 5, 15, 30 and 60 min respectively, and then 135 μL of ice-cold acetonitrile was added to terminate the reaction. The 96-well plates were shaken at 600 rpm for 10 min and then centrifuged at 4700 rpm at 4° C. for 15 min. 80 μL of supernatant was mixed with 320 μL of pure water, and the remaining amount of the compound was detected by LC-MS/MS method. The in vitro half life (T½) and intrinsic clearance (CLint) were calculated according to the following formula:
(§6) Intrinsic clearance (Clint)=(0.693/T1/2)×(1/liver microsome concentration)×conversion factor. k is the linear regression slope of the remaining percentage of the ln compound-incubation time.

[2] = Stability in human liver microsomes; assay type: in vitro ADME; details: 0.5 mg/mL microsomal protein, 1.00 μM compound, NADPH; for half-life at 1 μM: human, liver microsomes, pH 7.4, Human, read-out: Half life T1/2, human liver microsomes
Method: as §2, §3, §4, §5, §6

[3] = Stability in dog liver microsomes; assay type: in vitro ADME; details: 0.5 mg/mL microsomal protein, 1.00 μM compound, NADPH; for half-life at 1 μM: dog, liver microsomes, pH 7.4, Dog, read-out: Half life T1/2, dog liver microsomes
Method: as §2, §3, §4, §5, §6

[4] = biological target: T1, hERG potassium ion channel (Homo sapiens (Human), UniProt Q12809); assay: hERG potassium channel effect test (manual patch clamp, HEK293 cells overexpressing hERG); assay type: cell-based; details: for inhibition at 30 μM: human, HEK293 cells overexpressing hERG potassium ion channels, read-out: Average inhibition rate of hERG current at the highest compound tested concentration; for IC50: manual patch clamp, highest test concentration 30 μM
Method: Test Example 6: hERG Potassium Channel Effect Test
The hERG inhibition test was performed on some of the example compounds of the present disclosure using the manual electrophysiological patch clamp method. The cell line was derived from HEK293 cells that overexpressed hERG potassium ion channels. The specific experimental protocol was developed by PharmaCore Labs with reference to literature published in peer-reviewed journals and was performed by PharmaCore Labs in accordance with its standard experimental operating procedures. The highest test concentration was 30 μM.

[5] = biological target: Menin/MLL-4-43 peptide interaction (Homo sapiens (Human), UniProt O00255); assay: Menin-MLL interaction inhibitory activity assay (fluorescence polarization competition); assay type: binding; details: FITC-MLL4-43-peptide, Menin recombinant protein
Outline: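 Menin (8 nM solution) was preincubated 15 min with compound, then FITC-MLL4-43 peptide (10 nM solution) was added and shaken for 60 min at 25 °C. The buffer was 50 mM Tris pH 7.5, 50 mM NaCl, 1 mM DTT. IC50 was derived from fluorescence polarization read at 485/520 nm.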

[6] = Pharmacokinetics test in mouse; assay type: in vivo, ICR mice; details: mice, p.o. 10 mg/kg
From the text: Test Example 4. In Vivo Pharmacokinetic Study
Test purpose: To determine the pharmacokinetic properties of some of the example compounds of the present disclosure in mice, rats and dogs after single intravenous injection (i.v.) and oral gavage (i.g.) administration by LC-MS/MS method.
Research methods: An appropriate amount of compound was weighed and prepared into a transparent clear solution of a certain concentration using 0.9% sodium chloride injection and 1.5 equivalents of 1M HCl aqueous solution based on the molar number of the compound. After SPF male ICR mice, SPF male SD rats, and male beagle dogs were fasted overnight, the test compound solution was given by intravenous injection and oral gavage at the corresponding dose. Anticoagulated whole blood of the test animals was collected at 5 min, 15 min, 30 min, 1 h, 2 h, 4 h, 8 h, and 24 h after administration, and plasma was separated. Plasma samples at each time point were detected by LC-MS/MS, and the plasma concentration of the compound was determined by the standard curve correction method. Phoenix WinNonlin 5.2 non-compartmental model was used to calculate the pharmacokinetic parameters of terminal elimination half-life (t½), blood peak concentration (Cmax), area under the concentration-time curve (AUC), clearance (CL), and bioavailability (F %), which was directly obtained from the serum concentration results. Blood drug concentration and pharmacokinetic parameters are expressed as mean±standard deviation (X±SD). The specific test protocols for each species are as follows.
Pharmacokinetics Test in Mouse
Test animals: SPF male ICR mice, weighing 25-30 g, 12 mice/compound, purchased from Chengdu Dossy Experimental Animal Co., Ltd.
Test design: On the day of the test, ICR mice were randomly divided into groups according to body weight, fasted but with free water for 12-14 h one day before administration, and fed 2 h after administration.
Preparation of test compound solution: The concentration of the test compound for oral gavage was 1 mg/mL. An appropriate amount of compound was weighed and prepared into a 1 mg/mL transparent clear solution using 0.9% sodium chloride injection and 1.5 equivalents of 1M HCl aqueous solution. The concentration of the test compound for intravenous injection was 0.2 mg/mL. The 1 mg/mL transparent clear solution was diluted to a concentration of 0.2 mg/mL using 0.9% sodium chloride injection. The volume of 1 M HCl solution added was calculated as: volume of 1 M HCl solution added […]=weighed amount of compound (mg)/molecular weight×1.5×1000. The amount added during preparation must not exceed the calculated value.
The test substance was administered as follows: intravenous injection: 1 mg/kg of dose, 5 mL/kg of volume, 6 mice; oral gavage: 10 mg/kg of dose, 10 mL/kg of volume, 6 mice.
Sample collection: Blood (40-50 μl) was collected in anticoagulant tubes sprayed with EDTA-K2 through the orbital venous plexus at 5 min, 15 min, 30 min, 1 h, 2 h, 4 h, 8 h, and 24 h after administration, and centrifuged at 10,000 rpm for 20 min within 1 h (the blood was saved on wet ice before and after centrifugation). The supernatant, which was plasma, was collected and frozen in a refrigerator at −20° C. or below for LC-MS/MS analysis of Full PK of male ICR mice (2 mice per group, 4 blood collection time points per mouse, crossover).

[7] = biological target: T1, hERG potassium ion channel; details: reported value of the positive reference compound; cited from earlier work

T1 sequence (Q12809 whole entry): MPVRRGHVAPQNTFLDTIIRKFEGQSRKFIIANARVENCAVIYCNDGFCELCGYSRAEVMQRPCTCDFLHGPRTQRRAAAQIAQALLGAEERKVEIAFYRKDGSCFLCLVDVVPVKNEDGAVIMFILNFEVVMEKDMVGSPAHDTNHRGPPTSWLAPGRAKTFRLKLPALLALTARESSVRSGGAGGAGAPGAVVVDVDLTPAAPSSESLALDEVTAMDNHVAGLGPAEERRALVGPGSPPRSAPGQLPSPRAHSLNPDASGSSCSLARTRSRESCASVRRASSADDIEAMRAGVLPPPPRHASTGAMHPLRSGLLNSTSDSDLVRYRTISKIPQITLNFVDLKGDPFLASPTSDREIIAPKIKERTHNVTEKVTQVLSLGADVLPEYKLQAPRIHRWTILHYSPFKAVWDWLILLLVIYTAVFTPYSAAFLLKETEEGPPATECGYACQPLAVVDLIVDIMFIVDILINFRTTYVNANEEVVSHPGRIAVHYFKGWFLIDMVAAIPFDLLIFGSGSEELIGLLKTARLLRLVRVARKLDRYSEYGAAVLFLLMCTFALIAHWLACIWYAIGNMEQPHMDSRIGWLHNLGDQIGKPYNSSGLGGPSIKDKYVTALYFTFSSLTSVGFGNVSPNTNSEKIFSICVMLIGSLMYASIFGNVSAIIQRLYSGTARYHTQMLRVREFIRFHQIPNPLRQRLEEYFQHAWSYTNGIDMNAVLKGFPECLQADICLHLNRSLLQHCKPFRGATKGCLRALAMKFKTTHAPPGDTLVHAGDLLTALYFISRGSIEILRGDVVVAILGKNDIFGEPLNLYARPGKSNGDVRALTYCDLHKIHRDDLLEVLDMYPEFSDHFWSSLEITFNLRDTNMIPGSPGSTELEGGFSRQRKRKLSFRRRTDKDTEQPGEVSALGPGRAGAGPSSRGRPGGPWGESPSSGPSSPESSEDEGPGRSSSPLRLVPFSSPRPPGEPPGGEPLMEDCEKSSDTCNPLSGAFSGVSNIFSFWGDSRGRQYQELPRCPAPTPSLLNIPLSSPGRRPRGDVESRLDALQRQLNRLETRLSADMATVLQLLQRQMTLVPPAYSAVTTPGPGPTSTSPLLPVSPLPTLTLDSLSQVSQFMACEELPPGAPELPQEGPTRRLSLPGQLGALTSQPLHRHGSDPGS
Chain of Menin/MLL-4-43 peptide interaction (O00255 whole entry, species assumed): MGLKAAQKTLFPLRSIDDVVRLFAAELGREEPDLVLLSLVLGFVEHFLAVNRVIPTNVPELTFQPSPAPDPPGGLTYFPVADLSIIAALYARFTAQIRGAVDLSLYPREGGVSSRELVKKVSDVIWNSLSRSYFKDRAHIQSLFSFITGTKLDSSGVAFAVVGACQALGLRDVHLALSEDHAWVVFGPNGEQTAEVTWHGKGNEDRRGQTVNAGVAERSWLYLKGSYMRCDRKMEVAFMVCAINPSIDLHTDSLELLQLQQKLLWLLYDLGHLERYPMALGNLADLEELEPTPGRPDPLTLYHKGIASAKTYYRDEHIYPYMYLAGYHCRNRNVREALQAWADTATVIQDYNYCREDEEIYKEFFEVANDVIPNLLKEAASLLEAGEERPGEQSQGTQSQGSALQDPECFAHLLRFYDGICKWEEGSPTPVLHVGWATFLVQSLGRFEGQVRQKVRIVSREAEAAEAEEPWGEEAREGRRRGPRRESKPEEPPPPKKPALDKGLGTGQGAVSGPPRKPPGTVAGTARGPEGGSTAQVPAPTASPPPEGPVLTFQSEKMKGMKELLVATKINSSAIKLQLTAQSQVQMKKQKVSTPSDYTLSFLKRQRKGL

CCN(C(=O)c1cc(F)ccc1Oc1nncnc1N1CC2(CCN(C[C@H]3CC[C@]4(CC3)CC(COC)(COC)C(=O)N4)CC2)C1)C(C)C [Example 19] showed a GI50 (MV4-11) of 13.2 nM, a GI50 (MOLM-13) of 33.1 nM and a GI50 (OCI-AML3) of 28.5 nM. It also gave a half-life at 1 μM [1] of over 2 h, a half-life at 1 μM [2] of 1.35 h and a half-life at 1 μM [3] of over 2 h. The inhibition at 30 μM [4] was 12.8% and the IC50 [4] was over 30000 nM.

CCN(C(=O)c1cc(F)ccc1Oc1nncnc1N1CC2(CCN(C[C@H]3CC[C@]4(CC3)C[C@H](COC)C(=O)N4)CC2)C1)C(C)C [Example 37-1] showed an IC50 [5] of 12.9 nM, a GI50 (MV4-11) of 88.3 nM and a GI50 (MOLM-13) of 354 nM. It also gave a GI50 (OCI-AML3) of 183 nM, a half-life at 1 μM [1] of over 2 h and a half-life at 1 μM [2] of over 2 h. The half-life at 1 μM [3] was over 2 h, the inhibition at 30 μM [4] was 13.2% and the IC50 [4] was over 30000 nM.

For CCN(C(=O)c1cc(F)ccc1Oc1cncnc1N1CC2(CCN(C[C@H]3CC[C@H](NS(=O)(=O)CC)CC3)CC2)C1)C(C)C [SNDX-5613, reference compound], the “Half life T1/2, mouse liver microsomes” value ([1]; 0.5 mg/mL microsomal protein) was 1.178 h, the “Half life T1/2, human liver microsomes” value ([2]; Human) was 0.1998 h and the “Half life T1/2, dog liver microsomes” value ([3]; Dog) was 1.05 h. For the same compound, the “AUClast” value [6] was 2483 ng·h/mL, the “Cmax” value [6] was 1296 ng/mL and the “T1/2” value [6] was 1.53 h. The “F, %” value ([6]; 1 mg/kg for intravenous injection) was 88% and the IC50 [7] was 5000 to 15000 nM.
